Measured values: ChEMBL document CHEMBL5036349, “Development of potent dual PDK1/AurA kinase inhibitors for cancer therapy: Lead-optimization, structural insights, and ADME-Tox profile” (Eur J Med Chem, 2021)
Active and inactive are the calls of the source. The calls are words filed in the database; no cut-off is given here.

Tests used:
[1] = molecular target: Histone deacetylase 4 (Homo sapiens) (UniProt P56524); assay: Inhibition on human recombinant HDAC4 at 10 uM measured after 20 min by luminescence glo assay
[2] = Cytotoxicity against hTERT cells at 10 uM measured after 24 to 48 hrs by Cell-titer glo assay relative to control; assay type: cell-based; conditions: human, time 24-48 hrs
[3] = molecular target: 3',5'-cyclic-AMP phosphodiesterase 4C (Homo sapiens) (UniProt Q08493); assay: Inhibition of PDE4C1 (unknown origin) at 10 uM incubated for 60 mins followed by addition of binding agent and measured after 20 mins by Fluorescence Polarization assay relative to control; conditions: time 80.0 min
[4] = molecular target: T1, {'v': 'CYP1A2', 'o': 'p', 'q': 'Inhibition of CYP1A2 (unknown origin)'} (Homo sapiens, UniProt P05177); assay: Inhibition of CYP1A2 (unknown origin) at 10 uM pre-incubated for 30 min followed by addition of NADPH and measured after 30 min by Luminescence based plate reader method relative to control; assay type: ADME; conditions: time 60 min
T1 sequence (P05177 whole entry): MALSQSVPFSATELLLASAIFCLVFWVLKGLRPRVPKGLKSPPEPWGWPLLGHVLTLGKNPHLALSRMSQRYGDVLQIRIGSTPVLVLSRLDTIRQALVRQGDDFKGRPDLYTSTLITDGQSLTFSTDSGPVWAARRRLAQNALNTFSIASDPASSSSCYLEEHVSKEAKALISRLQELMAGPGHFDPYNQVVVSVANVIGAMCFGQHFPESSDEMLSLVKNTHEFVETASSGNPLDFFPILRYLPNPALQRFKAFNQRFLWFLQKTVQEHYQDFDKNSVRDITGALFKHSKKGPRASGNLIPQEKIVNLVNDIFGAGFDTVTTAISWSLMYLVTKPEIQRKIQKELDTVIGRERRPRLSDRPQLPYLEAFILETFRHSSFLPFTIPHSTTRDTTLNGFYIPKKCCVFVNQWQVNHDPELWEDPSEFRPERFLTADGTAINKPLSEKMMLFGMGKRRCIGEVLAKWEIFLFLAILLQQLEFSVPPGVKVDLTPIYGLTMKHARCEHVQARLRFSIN

PC-3 = assay: Cytotoxicity against human PC-3 cells measured after 72 hrs by MTT assay; assay type: functional, cell-based; conditions: PC-3, 72 h
NCI-H82 = assay: Cytotoxicity against human NCI-H82 cells measured after 72 hrs by MTT assay; assay type: functional, cell-based; conditions: NCI-H82, 72 h
[5] = Cytotoxicity against human TC71 cells measured after 72 hrs by MTT assay; assay type: functional, cell-based; conditions: TC-71, 72 h
CAKI-1 = assay: Cytotoxicity against human CAKI-1 cells measured after 72 hrs by MTT assay; assay type: functional, cell-based; conditions: CAKI-1, 72 h
786-0 = assay: Cytotoxicity against human 786-0 cells measured after 72 hrs by MTT assay; assay type: functional, cell-based; conditions: 786-0, 72 h
IGROV-1 = assay: Cytotoxicity against human IGROV-1 cells measured after 72 hrs by MTT assay; assay type: functional, cell-based; conditions: IGROV-1, 72 h
HCT-116 [6] = assay: Cytotoxicity against human HCT-116 cells measured after 72 hrs by MTT assay; assay type: functional, cell-based; conditions: HCT-116, 72 h
TC-32 = assay: Cytotoxicity against human TC-32 cells measured after 72 hrs by MTT assay; assay type: functional, cell-based; conditions: TC-32, 72 h
[7] = Cytotoxicity against human 6647 cells measured after 72 hrs by MTT assay; assay type: functional, cell-based; conditions: Homo sapiens, 6647, 72 h
MCF7 = assay: Cytotoxicity against human MCF7 cells measured after 72 hrs by MTT assay; assay type: functional, cell-based; conditions: MCF7, 72 h
SK-N-MC [8] = assay: Cytotoxicity against human SK-N-MC cells measured after 72 hrs by MTT assay; assay type: functional, cell-based
NCI-H69 = assay: Cytotoxicity against human NCI-H69 cells measured after 72 hrs by MTT assay; assay type: functional, cell-based; conditions: NCI-H69, 72 h
A673 = assay: Cytotoxicity against human A673 cells measured after 72 hrs by MTT assay; assay type: functional, cell-based; conditions: A673, 72 h
Rec1 [9] = assay: Cytotoxicity against human REC1 cells measured after 72 hrs by MTT assay; assay type: functional, cell-based; conditions: Rec1, 72 h
TC-71 = assay: Anticlonogenic activity against human TC71 cells assessed as reduction of cell survival at 0.5 to 20 uM measured after 10 days by SRB staining clonogenic survival assay; assay type: functional, cell-based; conditions: dose 0.5-20 µM, time 10.0 day
[10] = Drug uptake in human […] cell at 1.5 uM measured upto 120 min by UPLC-MS/MS analysis; assay type: ADME, tissue-based; conditions: 2 h
[11] = Cmax in CD-1 mouse at 10 mg/kg iv measured by UPLC-MS/MS method; assay type: ADME, organism-based; set-up: route intravenous, dose 10 mg/kg; conditions: in vivo
[12] = Half life in CD-1 mouse at 10 mg/kg iv measured by UPLC-MS/MS method; assay type: ADME, organism-based; conditions: in vivo
[13] = AUC in CD-1 mouse at 10 mg/kg iv measured by UPLC-MS/MS method; assay type: ADME, organism-based; set-up: dose 10 mg/kg; conditions: in vivo
[14] = AUC (infinity) in CD-1 mouse at 10 mg/kg iv measured by UPLC-MS/MS method; assay type: ADME, organism-based; set-up: time infinity, route intravenous, dose 10 mg/kg; conditions: in vivo
SK-N-MC [15] = assay: Upregulation of p21 protein expression level in human SK-N-MC cell at 1 uM incubated for 2 hrs by western blot analysis; assay type: functional, tissue-based
[16] = molecular target: Ribosomal protein S6 kinase alpha-3 (Homo sapiens) (UniProt P51812); assay: Inhibition of human RSK2 in human SK-N-MC cell assessed as inhibition of RSK2 phosphorylation at 1 uM measured after 30 min by Western blot analysis; assay type: tissue-based
[17] = Cytotoxicity against human 6647 cells at 30 uM assessed as cell proliferation rate measured after 72 hrs by MTT assay relative to control; assay type: functional
SK-N-MC [18] = assay: Inhibition of human Akt in human SK-N-MC cell assessed as inhibition of Akt phosphorylation at 1 uM measured after 30 min by Western blot analysis; assay type: tissue-based
SK-N-MC [19] = assay: Upregulation of C-Myc protein expression level in human SK-N-MC cell at 1 uM incubated for 2 hrs by western blot analysis; assay type: functional, tissue-based
[20] = Clearance in CD-1 mouse at 10 mg/kg iv measured by UPLC-MS/MS method; assay type: ADME, organism-based; conditions: in vivo
SK-N-MC [21] = assay: Inhibition of MAPK signaling in human SK-N-MC cell assessed as decrease in phosphorylated ERK 1/2 at 1 uM measured after 30 min by Western blot analysis; assay type: tissue-based
SK-N-MC [22] = assay: Upregulation of RB1 protein expression level in human SK-N-MC cell at 1 uM incubated for 2 hrs by western blot analysis; assay type: functional, tissue-based
[23] = molecular target: Aurora kinase A (Homo sapiens) (UniProt O14965); assay: Modulation in AURA protein in human SK-N-MC cell at 1 uM measured after 30 min by Western blot analysis; assay type: tissue-based
Rec1 [24] = assay: Cytotoxicity against human REC1 cells at 30 uM assessed as cell proliferation rate measured after 72 hrs by MTT assay relative to control; assay type: functional
HCT-116 [25] = assay: Cytotoxicity against human HCT-116 cells at 30 uM assessed as cell proliferation rate measured after 72 hrs by MTT assay relative to control; assay type: functional
[26] = Volume of distribution in CD-1 mouse at 10 mg/kg iv measured by UPLC-MS/MS method; assay type: ADME, organism-based; conditions: in vivo

Chain of 3',5'-cyclic-AMP phosphodiesterase 4C (Homo sapiens) (Q08493 whole entry): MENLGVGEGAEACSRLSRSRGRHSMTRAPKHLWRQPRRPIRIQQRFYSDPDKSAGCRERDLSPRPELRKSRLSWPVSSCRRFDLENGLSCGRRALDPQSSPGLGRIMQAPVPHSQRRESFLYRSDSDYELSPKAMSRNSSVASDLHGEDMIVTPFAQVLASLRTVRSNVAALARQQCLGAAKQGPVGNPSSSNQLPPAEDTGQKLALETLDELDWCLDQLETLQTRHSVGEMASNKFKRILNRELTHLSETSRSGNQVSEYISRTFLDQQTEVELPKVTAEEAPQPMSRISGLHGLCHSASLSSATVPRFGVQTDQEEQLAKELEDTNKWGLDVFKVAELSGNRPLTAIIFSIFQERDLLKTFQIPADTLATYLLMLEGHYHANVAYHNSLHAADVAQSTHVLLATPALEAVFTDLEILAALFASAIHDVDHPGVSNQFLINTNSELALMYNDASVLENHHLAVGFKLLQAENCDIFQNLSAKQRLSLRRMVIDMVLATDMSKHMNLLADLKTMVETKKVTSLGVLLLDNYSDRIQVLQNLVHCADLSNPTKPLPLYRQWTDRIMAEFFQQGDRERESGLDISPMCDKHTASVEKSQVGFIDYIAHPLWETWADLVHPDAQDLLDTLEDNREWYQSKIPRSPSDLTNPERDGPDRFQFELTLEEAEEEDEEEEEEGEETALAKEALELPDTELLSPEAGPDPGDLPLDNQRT
Chain of Histone deacetylase 4 (Homo sapiens) (P56524 whole entry): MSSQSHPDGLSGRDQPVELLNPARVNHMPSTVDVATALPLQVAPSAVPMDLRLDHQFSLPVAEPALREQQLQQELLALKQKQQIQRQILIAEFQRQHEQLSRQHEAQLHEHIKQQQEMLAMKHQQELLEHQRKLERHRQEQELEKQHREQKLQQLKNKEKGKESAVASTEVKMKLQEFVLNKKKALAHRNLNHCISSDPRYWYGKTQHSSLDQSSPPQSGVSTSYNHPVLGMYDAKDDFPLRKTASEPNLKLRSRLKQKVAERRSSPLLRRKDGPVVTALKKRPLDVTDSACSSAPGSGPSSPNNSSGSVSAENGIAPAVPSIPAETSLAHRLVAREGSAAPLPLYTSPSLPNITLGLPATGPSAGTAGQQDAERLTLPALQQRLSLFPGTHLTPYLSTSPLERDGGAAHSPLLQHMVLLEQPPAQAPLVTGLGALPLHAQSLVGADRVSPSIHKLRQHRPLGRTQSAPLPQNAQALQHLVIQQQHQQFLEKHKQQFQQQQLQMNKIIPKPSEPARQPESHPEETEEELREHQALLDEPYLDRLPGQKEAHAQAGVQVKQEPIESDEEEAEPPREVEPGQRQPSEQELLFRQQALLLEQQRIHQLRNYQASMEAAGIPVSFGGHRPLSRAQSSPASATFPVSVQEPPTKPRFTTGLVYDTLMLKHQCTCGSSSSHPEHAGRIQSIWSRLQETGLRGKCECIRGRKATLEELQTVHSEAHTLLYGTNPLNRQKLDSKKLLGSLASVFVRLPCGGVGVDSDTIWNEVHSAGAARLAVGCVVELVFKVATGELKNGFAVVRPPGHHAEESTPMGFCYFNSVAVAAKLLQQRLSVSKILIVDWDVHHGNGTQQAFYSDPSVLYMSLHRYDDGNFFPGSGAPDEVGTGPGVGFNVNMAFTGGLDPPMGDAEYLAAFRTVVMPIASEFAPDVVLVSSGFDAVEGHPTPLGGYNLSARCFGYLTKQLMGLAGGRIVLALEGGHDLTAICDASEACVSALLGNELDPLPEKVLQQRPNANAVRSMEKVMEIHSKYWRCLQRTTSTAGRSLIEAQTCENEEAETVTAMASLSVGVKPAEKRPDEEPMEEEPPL
Chain of Ribosomal protein S6 kinase alpha-3 (Homo sapiens) (P51812 whole entry): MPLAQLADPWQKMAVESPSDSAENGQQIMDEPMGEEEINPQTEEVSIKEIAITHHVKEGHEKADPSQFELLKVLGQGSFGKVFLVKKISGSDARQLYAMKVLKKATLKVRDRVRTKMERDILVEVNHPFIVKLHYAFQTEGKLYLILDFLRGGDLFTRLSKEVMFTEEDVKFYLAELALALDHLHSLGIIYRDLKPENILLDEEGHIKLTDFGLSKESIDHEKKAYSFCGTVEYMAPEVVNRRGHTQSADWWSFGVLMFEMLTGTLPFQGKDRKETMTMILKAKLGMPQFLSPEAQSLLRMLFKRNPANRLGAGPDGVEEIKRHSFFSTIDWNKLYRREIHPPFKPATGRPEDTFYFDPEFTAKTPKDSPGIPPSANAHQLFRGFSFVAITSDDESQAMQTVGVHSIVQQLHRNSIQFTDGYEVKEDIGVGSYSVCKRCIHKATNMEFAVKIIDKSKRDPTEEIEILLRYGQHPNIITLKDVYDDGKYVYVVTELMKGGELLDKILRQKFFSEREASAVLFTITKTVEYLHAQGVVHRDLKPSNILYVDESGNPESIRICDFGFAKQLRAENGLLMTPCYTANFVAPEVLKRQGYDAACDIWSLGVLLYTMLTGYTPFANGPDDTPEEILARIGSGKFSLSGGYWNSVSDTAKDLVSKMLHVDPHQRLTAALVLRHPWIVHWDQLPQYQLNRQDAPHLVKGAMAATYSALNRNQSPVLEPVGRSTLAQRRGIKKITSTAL
Chain of Aurora kinase A (Homo sapiens) (O14965 whole entry): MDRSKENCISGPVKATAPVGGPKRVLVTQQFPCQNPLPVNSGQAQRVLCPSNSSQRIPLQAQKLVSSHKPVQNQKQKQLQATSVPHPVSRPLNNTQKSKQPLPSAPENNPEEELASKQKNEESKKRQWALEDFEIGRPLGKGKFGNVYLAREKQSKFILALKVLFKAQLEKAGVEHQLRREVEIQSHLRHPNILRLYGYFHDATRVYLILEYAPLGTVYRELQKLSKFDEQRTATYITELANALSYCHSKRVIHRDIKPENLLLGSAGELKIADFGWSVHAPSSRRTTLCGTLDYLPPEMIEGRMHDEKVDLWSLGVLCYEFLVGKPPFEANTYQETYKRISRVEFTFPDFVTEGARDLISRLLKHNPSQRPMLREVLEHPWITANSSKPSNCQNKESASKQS

Compound: O=C(CCNC(=O)c1cccn(Cc2ccc(F)c(F)c2)c1=O)Nc1ccc2c(c1)/C(=C/c1cnc[nH]1)C(=O)N2
- inhibition [1]: < 30%
- Activity [2]: < 25%
- inhibition [3]: < 30%
- inhibition at 0.5 h, 10 µM [4]: > 90%

Compound: Cc1c(Br)cc(C(=O)N[C@@H](C(=O)Nc2ccc3c(c2)/C(=C/c2cnc[nH]2)C(=O)N3)c2ccccc2)c(=O)n1Cc1ccc(F)c(F)c1
- IC50 (PC-3): > 30 µM
- IC50 (NCI-H82): > 30 µM
- IC50 [5]: > 30 µM
- IC50 (CAKI-1): > 30 µM
- IC50 (786-0): > 30 µM
- IC50 (IGROV-1): > 30 µM
- IC50 (HCT-116 [6]): > 30 µM
- IC50 (TC-32): > 30 µM
- IC50 [7]: > 30 µM
- inhibition [1]: < 30%
- IC50 (MCF7): > 30 µM
- IC50 (SK-N-MC [8]): > 30 µM
- Activity [2]: < 25%
- inhibition [3]: < 30%
- IC50 (NCI-H69): > 30 µM
- inhibition at 0.5 h, 10 µM [4]: < 45%

Compound: Cc1ccc(C(=O)NCC(=O)Nc2ccc3c(c2)/C(=C/c2cnc[nH]2)C(=O)N3)c(=O)n1Cc1ccc(F)c(F)c1
- inhibition [1]: < 30%
- Activity [2]: < 25%
- inhibition [3]: < 30%
- inhibition at 0.5 h, 10 µM [4]: > 90%

Compound: O=C1Nc2ccc(NC(=O)[C@H](NC(=O)c3cccn(Cc4ccc(F)c(F)c4)c3=O)c3ccccc3)cc2/C1=C/c1cnc[nH]1 (stereo in doubt)
- IC50 (A673): > 30 µM
- IC50 (PC-3): > 30 µM
- IC50 (NCI-H82): > 30 µM
- IC50 (Rec1 [9]): 11 µM
- IC50 [5]: 16.9 µM
- Activity (TC-71): Dose-Dependent Effect
- IC50 (CAKI-1): > 30 µM
- IC50 (786-0): > 30 µM
- Drug uptake [10]: 800 ng/mL
- Cmax [11]: 1300 ng/mL
- IC50 (IGROV-1): > 30 µM
- t1/2 [12]: 1.5 h
- AUC [13]: 4220 ng·h/mL
- AUC [14]: 5720 ng·h/mL
- IC50 (HCT-116 [6]): 3.6 µM
- Activity (SK-N-MC [15]): Active
- IC50 (TC-32): > 30 µM
- IC50 [7]: 4.8 µM
- inhibition [1]: < 30%
- inhibition [16]: Active
- IC50 (MCF7): > 30 µM
- Emax at 30 µM [17]: 84%
- inhibition (SK-N-MC [18]): Active
- Activity (SK-N-MC [19]): Active
- IC50 (SK-N-MC [8]): 3 µM
- CL [20]: 75 mL/h
- Activity [2]: < 25%
- inhibition (SK-N-MC [21]): Active
- Activity (SK-N-MC [22]): Active
- Activity [23]: inactive
- Emax at 30 µM (Rec1 [24]): 55%
- Emax at 30 µM (HCT-116 [25]): 60%
- inhibition [3]: < 30%
- IC50 (NCI-H69): > 30 µM
- Vd [26]: 0.37 L
